Drawing on patent US20260176260A1, “DUAL RAF AND TUBULIN INHIBITORS AND METHODS OF USE THEREOF” (Deciphera Pharmaceuticals, LLC, priority 2023, published 2026), this text covers IC50 for eight compounds.

The subject of one test is Pa16c cells. The experiment in a line: Pa16c cell proliferation assay (resazurin). Type of test: cell-based. The conditions noted are these: Table 2, inhibition of cell proliferation. The method, then: Pa16c cells are obtained from Dr. Channing Der, University of North Carolina at Chapel Hill. Briefly, cells are grown in Dulbecco's Modified Eagle Medium supplemented with 10% characterized fetal bovine serum (Invitrogen, Carlsbad, CA) and 1% Penicillin/Streptomycin/L-Glutamine at 37° C., 5% CO2, and 95% humidity. Cells are expanded until reaching 70-95% confluency at which point they are sub-cultured or harvested for assay use. A serial dilution of test compound is dispensed into a 384-well black clear bottom plate in triplicate. 750 cells are added per well in 50 μL complete growth medium in the 384-well plate. Plates are incubated for 67 to 72 h at 37° C., 5% CO2, and 95% humidity. At the end of the incubation, 40 μL of a […] solution of resazurin (Sigma, St. Louis, MO) in PBS is added to each well of the plate and plates are incubated for an additional 18 to 24 h at 37° C., 5% CO2, and 95% humidity. Plates are read on a Synergy2 or equivalent reader (Biotek, Winooski, VT) using an excitation of 540 nm and an emission of 600 nm. Data is analyzed using Prism software (Graphpad, San Diego, CA) to calculate IC50 values.
In general terms: Alamar Blue is a resazurin reagent that responds to reducing activity.

For a further test, the system named is HCT-116 cells. The experiment in a line: HCT-116 cell proliferation assay (resazurin). The format is cell-based. The conditions noted are these: Homo sapiens; Table 2, inhibition of cell proliferation; read-out: HCT-116. The method, then: HCT-116 cells (catalog #CCL-247) are obtained from the American Type Culture Collect (ATCC, Manassas, VA). Briefly, cells are grown in McCoy's 5A supplemented with 10% characterized fetal bovine serum (Invitrogen, Carlsbad, CA) and 1% Penicillin/Streptomycin/L-Glutamine at 37° C., 5% CO2, and 95% humidity. Cells are expanded until reaching 70-95% confluency at which point they are sub-cultured or harvested for assay use. A serial dilution of test compound is dispensed into a 384-well black clear bottom plate in triplicate. 375 cells are added per well in 50 μL complete growth medium in the 384-well plate. Plates are incubated for 67 to 72 h at 37° C., 5% CO2, and 95% humidity. At the end of the incubation, 40 μL of a […] solution of resazurin (Sigma, St. Louis, MO) in PBS is added to each well of the plate and plates are incubated for an additional 4 to 5 h at 37° C., 5% CO2, and 95% humidity. Plates are read on a Synergy2 or equivalent reader (Biotek, Winooski, VT) using an excitation of 540 nm and an emission of 600 nm. Data is analyzed using Prism software (Graphpad, San Diego, CA) to calculate IC50 values.

A further test has as its system HPAF-II cells. The experiment in a line: HPAF-II cell proliferation assay (resazurin). Type of test: cell-based. The conditions noted are these: Homo sapiens; Table 2, inhibition of cell proliferation; read-out: HPAF-II. The method, then:
HPAF-II cells (catalog #CRL-1997) are obtained from the American Type Culture Collect (ATCC, Manassas, VA). Briefly, cells are grown in Minimum Essential Media supplemented with 10% characterized fetal bovine serum (Invitrogen, Carlsbad, CA) and 1% Penicillin/Streptomycin/L-Glutamine at 37° C., 5% CO2, and 95% humidity. Cells are expanded until reaching 70-95% confluency at which point they are sub-cultured or harvested for assay use. A serial dilution of test compound is dispensed into a 384-well black clear bottom plate in triplicate. 750 cells are added per well in 50 μL complete growth medium in the 384-well plate. Plates are incubated for 115 to 120 h at 37° C., 5% CO2, and 95% humidity. At the end of the incubation, 40 μL of a […] solution of resazurin (Sigma, St. Louis, MO) in PBS is added to each well of the plate and plates are incubated for an additional 18 to 24 h at 37° C., 5% CO2, and 95% humidity. Plates are read on a Synergy2 or equivalent reader (Biotek, Winooski, VT) using an excitation of 540 nm and an emission of 600 nm. Data is analyzed using Prism software (Graphpad, San Diego, CA) to calculate IC50 values.

The target of another test is T1, C-Raf kinase (Homo sapiens, UniProt P04049, Y340D/Y341D).
T1 construct: C-Raf residues 306-end; Y340D, Y341D with N-; purchased Sigma
T1 sequence (P04049 307-648 Y340D/Y341D): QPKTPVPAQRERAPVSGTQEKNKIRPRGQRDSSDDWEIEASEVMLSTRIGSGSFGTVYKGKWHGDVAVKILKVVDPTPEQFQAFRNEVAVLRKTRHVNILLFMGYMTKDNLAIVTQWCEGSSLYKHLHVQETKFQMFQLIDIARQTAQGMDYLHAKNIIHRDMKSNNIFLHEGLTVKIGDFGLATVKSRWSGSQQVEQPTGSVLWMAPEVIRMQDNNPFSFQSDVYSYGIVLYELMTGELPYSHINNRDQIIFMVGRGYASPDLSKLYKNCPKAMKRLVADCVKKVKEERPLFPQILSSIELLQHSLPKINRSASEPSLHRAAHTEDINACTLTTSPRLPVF
The experiment in a line: Biochemical assay for C-Raf (coupled pyruvate kinase/lactate dehydrogenase). The conditions noted are these: Table 1, inhibition of biochemical activity; read-out: CRAF.

A further test deals with MiaPaca-2 cells. The experiment in a line: MiaPaca-2 cell proliferation assay (resazurin). Type of test: cell-based. Particulars: Homo sapiens, MIA PaCa-2; Table 2, inhibition of cell proliferation; read-out: MiaPaca-2. The method, then: MiaPaca-2 cells (catalog #CRL-1420) are obtained from the American Type Culture Collect (ATTC, Manassas, VA). Briefly, cells were grown in DMVEM supplemented with […] fetal bovine serum (Invitrogen, Carlsbad, CA), 2.5% New Zealand sourced horse serum and 1% Penicillin/Streptomycin/L-Glutamine at 37° C., […], and […]. Cells are expanded until reaching […] at which point they are sub-cultured or harvested for assay use. For assays completed in 96-well plates, a serial dilution of test compound is dispensed into a 96-well black clear bottom plate in triplicate. Three thousand cells are added per well in 200 μL complete growth medium in the 96-well plate. Plates are incubated for 67 to 72 h at 37° C., 5% CO2, and 95% humidity. At the end of the incubation, 40 μL of a […] solution of resazurin (Sigma, St. Louis, MO) in PBS is added to each well of the plate and plates are incubated for an additional 5 to 6 h at 37° C., 5% CO2, and 95% humidity. For 384-well assays, a threefold, 8-point serial dilution of compound was spotted column wise into a 384 well black, clear bottom, tissue culture treated plate using the Beckman Coulter Echo 650. Likewise, a threefold, 8-point serial dilution of cobimetinib was spotted row wise into the 384 well black, clear bottom plate containing compound. DMSO concentration was constant across all wells at 0.4%. Seven hundred fifty cells are added per well in 50 μL complete growth medium in each 384-well plate. Plates are incubated for 67 to 72 h at 37° C., 5% CO2, and 95% humidity. At the end of the incubation, 10 μL of a 440 μM solution of resazurin (Sigma, St. Louis, MO) in PBS is added to each well of the plate and plates are incubated for an additional 4 to 6 h at 37° C., 5% CO2, and 95% humidity. Plates are read on a Synergy2 or equivalent reader (Biotek, Winooski VT) using an excitation of 540 nm and an emission of 600 nm. Data is analyzed using Prism software (Graphpad, San Diego, CA) to calculate IC50 values.

A further test addresses T2, B-Raf kinase (Homo sapiens, UniProt P15056).
T2 construct: purchased Sigma
The experiment in a line: Biochemical assay for B-Raf (coupled pyruvate kinase/lactate dehydrogenase). The conditions noted are these: Table 1, inhibition of biochemical activity; read-out: BRAF.

The structures appear in SMILES notation. Where only a bound is given, the exact number is not on record here.

T2 sequence (P15056 416-766): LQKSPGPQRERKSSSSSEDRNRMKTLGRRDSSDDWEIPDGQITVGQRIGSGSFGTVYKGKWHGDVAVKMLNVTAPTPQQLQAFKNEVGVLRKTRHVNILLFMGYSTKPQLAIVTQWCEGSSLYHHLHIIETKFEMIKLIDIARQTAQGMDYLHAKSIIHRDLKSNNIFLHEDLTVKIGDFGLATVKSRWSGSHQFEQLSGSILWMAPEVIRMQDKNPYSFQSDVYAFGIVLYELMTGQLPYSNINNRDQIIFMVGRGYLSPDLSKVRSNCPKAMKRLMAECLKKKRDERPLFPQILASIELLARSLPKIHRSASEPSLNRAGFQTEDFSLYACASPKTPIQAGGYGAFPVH

For `CNC(=O)c1cc(-c2nc(N[C@H](C)CO)cc(-c3cc(NC(=O)c4cc(C(F)(F)F)cnn4)ccc3C)n2)ccn1` [Example 28], the IC50 was 1000 to 10000 nM in the test on Pa16c cells; 1000 to 10000 nM in the test on HCT-116 cells; 1000 to 10000 nM in the test on HPAF-II cells; under 100 nM at C-Raf kinase; 1000 to 10000 nM in the test with MiaPaca-2 cells; under 100 nM at B-Raf kinase.
Take `CNC(=O)c1cc(-c2nc(NCCO)cc(-c3cc(NC(=O)c4cc(C5CC5)cnn4)ccc3C)n2)ccn1` [Example 22]: the IC50 is 1000 to 10000 nM with Pa16c cells; 1000 to 10000 nM with HCT-116 cells; 1000 to 10000 nM in the test on HPAF-II cells; under 100 nM at C-Raf kinase; 1000 to 10000 nM in the test on MiaPaca-2 cells; under 100 nM at B-Raf kinase.
As to `CNC(=O)c1cc(-c2cncc(-c3cc(NC(=O)c4cc(C(F)(F)F)cnn4)ccc3C)c2)ncn1` [Example 17], the IC50 in the test with Pa16c cells fell in the range of 1000 to 10000 nM; with HCT-116 cells, 1000 to 10000 nM; in the test with HPAF-II cells, 1000 to 10000 nM; at C-Raf kinase it was 100 to 500 nM; in the test on MiaPaca-2 cells, 1000 to 10000 nM; on B-Raf kinase it was 100 to 500 nM.
`CNC(=O)c1cc(-c2cc(-c3cc(NC(=O)c4cc(C(C)(F)F)cnn4)ccc3C)ccn2)ccn1` [Example 31]: the IC50 was 100 to 500 nM in the test with Pa16c cells; 100 to 500 nM with HCT-116 cells; 100 to 500 nM with HPAF-II cells; under 100 nM at C-Raf kinase; 100 to 500 nM with MiaPaca-2 cells; under 100 nM on B-Raf kinase.
As for `CNC(=O)c1cc(-c2nc(NCCO)cc(-c3cc(NC(=O)c4cc(C(F)(F)F)cnn4)ccc3C)n2)ccn1` [Example 23], the IC50 in the test with Pa16c cells was 1000 to 10000 nM; in the test on HCT-116 cells, 500 to 1000 nM; in the test on HPAF-II cells, 1000 to 10000 nM; on C-Raf kinase it was under 100 nM; in the test with MiaPaca-2 cells it was 1000 to 10000 nM; at B-Raf kinase it was under 100 nM.
Take `CNC(=O)c1cc(-c2cc(-c3cc(NC(=O)c4cnc(C(F)(F)F)nc4)ccc3C)cc(N[C@H](C)CO)n2)ccn1` [Example 45]: the IC50 with Pa16c cells is 1000 to 10000 nM; in the test on HCT-116 cells, 1000 to 10000 nM; in the test with HPAF-II cells, 1000 to 10000 nM; on C-Raf kinase, 100 to 500 nM; in the test on MiaPaca-2 cells it was 1000 to 10000 nM; on B-Raf kinase it was 100 to 500 nM.
As to `CNC(=O)c1cc(-c2cc(-c3cc(NC(=N)c4cc(C5CC5)cnn4)ccc3C)ccn2)ccn1` [Example 21], the IC50 in the test on Pa16c cells is 1000 to 10000 nM; in the test on HCT-116 cells it was 1000 to 10000 nM; with HPAF-II cells, 1000 to 10000 nM; at C-Raf kinase, 100 to 500 nM; in the test on MiaPaca-2 cells it was 1000 to 10000 nM; on B-Raf kinase, 500 to 1000 nM.
For the compound `CNC(=O)c1cc(-c2cncc(-c3cc(NC(=O)c4cc(C(F)(F)F)cnn4)ccc3C)c2)ccn1` [Example 16], the IC50 in the test with Pa16c cells was 1000 to 10000 nM; in the test on HCT-116 cells, 500 to 1000 nM; with HPAF-II cells, 1000 to 10000 nM; on C-Raf kinase it was under 100 nM; in the test with MiaPaca-2 cells it was 500 to 1000 nM; at B-Raf kinase, under 100 nM.
